Consider 20 compounds from patent publication US8404708B2, “Dual NK1/NK3 receptor antagonists” (Hoffmann-La Roche Inc., priority 2004, dated 2013).

In one assay the target is human NK1 receptor (Homo sapiens, UniProt P25103). Description: NK1 receptor binding, [3H]substance P displacement, CHO cell membranes.
The target of assay [1] is T1, Recombinant human NK3 (hNK3) receptor (Homo sapiens, UniProt P29371).
T1 construct: expressed in transfected cells
T1 sequence (P29371 1-465): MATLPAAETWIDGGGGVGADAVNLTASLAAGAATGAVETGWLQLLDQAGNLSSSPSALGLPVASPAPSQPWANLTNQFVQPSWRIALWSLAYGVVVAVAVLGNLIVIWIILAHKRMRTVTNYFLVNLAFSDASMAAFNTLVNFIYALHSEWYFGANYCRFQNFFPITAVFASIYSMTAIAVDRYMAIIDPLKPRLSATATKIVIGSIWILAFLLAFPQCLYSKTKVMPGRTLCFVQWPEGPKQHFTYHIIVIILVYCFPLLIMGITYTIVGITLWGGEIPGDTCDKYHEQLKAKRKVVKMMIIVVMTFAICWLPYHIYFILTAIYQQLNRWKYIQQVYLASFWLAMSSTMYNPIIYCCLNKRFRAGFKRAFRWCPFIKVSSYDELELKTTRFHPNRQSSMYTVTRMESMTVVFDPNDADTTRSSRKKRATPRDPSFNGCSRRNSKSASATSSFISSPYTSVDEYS
The assay can be described thus: NK3 receptor binding, [3H]SR142801 displacement, membrane preparations. As for the experimental part: Non specific binding was determined using 10 μM SB222200. Assay buffer consisted of Tris-HCl (50 mM, pH 7.4), BSA (0.1%), MnCl2 (4 mM) and phosphoramidon (1 μM). Membrane preparations of hNK3 receptors (approximately 2.5 μg/well in a 96 well plate) were used to initiate the incubation for 90 min at room temperature. This assay was terminated by rapid filtration under vacuum through GF/C filters, presoaked for 90 min with PEI (0.3%), with 3×0.5 ml washes of ice-cold Tris buffer (50 mM, pH 7.4) containing 0.1% BSA. The radioactivity retained on the filters was measured by scintillation counting. All assays were performed in duplicate in at least two separate experiments.

Setting [2] is: first value of the cell pKi NK1/NK3, human NK1 receptor, [3H]substance P.
The mark [3] stands for this setting: second value of the cell pKi NK1/NK3, hNK3 receptor, [3H]SR142801.
Where [4] appears, read: first value of the cell NK1/NK3, read-out: pKi NK1 (converted).
[5] abbreviates: second value of the cell NK1/NK3, read-out: pKi NK3 (converted).

Each structure is given as a SMILES string. Where two headings read alike, the source gives them in different places.

Chain of human NK1 receptor (P25103 whole entry): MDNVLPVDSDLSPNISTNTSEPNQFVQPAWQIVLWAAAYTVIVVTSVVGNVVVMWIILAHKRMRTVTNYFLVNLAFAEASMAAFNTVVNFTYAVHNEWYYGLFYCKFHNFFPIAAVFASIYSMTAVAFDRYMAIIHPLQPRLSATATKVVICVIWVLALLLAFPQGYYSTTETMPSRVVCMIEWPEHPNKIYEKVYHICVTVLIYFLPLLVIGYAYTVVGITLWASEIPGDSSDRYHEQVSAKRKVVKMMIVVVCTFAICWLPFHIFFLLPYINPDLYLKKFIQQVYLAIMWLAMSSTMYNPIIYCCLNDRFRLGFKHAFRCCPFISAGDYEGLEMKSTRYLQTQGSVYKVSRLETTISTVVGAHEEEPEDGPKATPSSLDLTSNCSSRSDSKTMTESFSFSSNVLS

As to `CN(C(=O)C(C)(C)c1cc(C(F)(F)F)cc(C(F)(F)F)c1)c1cnc(N2C[C@H](O)C[C@H]2CO)cc1-c1ccc(Cl)c(Cl)c1` [Example 135, (2S,4R)-2-(3,5-Bis-trifluoromethyl-phenyl)-N-[4-(3,4-dichloro-phenyl)-6-(4-hydroxy-2-hydroxymethyl-pyrrolidin-1-yl)-pyridin-3-yl]-N-methyl-isobutyramide], the values for the Ki (at human NK1 receptor (setting [2]); in assay [1] (setting [3])) were 4.27 nM and 31.6 nM, respectively.

Regarding `C[C@@H](O)CNc1cc(-c2ccccc2Cl)c(N(C)C(=O)C(C)(C)c2cc(C(F)(F)F)cc(C(F)(F)F)c2)cn1` [Example 73, (R)-2-(3,5-Bis-trifluoromethyl-phenyl)-N-[4-(2-chloro-phenyl)-6-(2-hydroxy-propylamino)-pyridin-3-yl]-N-methyl-isobutyramide], the Ki is 0.871 nM at human NK1 receptor (setting [2]) and 7.41 nM in assay [1] (setting [3]).

For `CN(C(=O)C(C)(C)c1cc(C(F)(F)F)cc(C(F)(F)F)c1)c1cnc(N2CC[C@H](O)[C@H](O)C2)cc1-c1ccccc1Cl` (racemic) [Example 187, (3RS,4SR)-2-(3,5-Bis-trifluoromethyl-phenyl)-N-[4′-(2-chloro-phenyl)-3,4-dihydroxy-3,4,5,6-tetrahydro-2H-[1,2′]bipyridinyl-5′-yl]-N-methyl-isobutyramide], the Ki at human NK1 receptor (setting [2]) is 1.66 nM; in assay [1] (setting [3]), 25.7 nM.

As for `CCN(CCO)c1cc(-c2ccccc2Cl)c(N(C)C(=O)C(C)(C)c2cc(C(F)(F)F)cc(C(F)(F)F)c2)cn1` [Example 55, 2-(3,5-Bis-trifluoromethyl-phenyl)-N-{4-(2-chloro-phenyl)-6-[ethyl-(2-hydroxy-ethyl)-amino]-pyridin-3-yl}-N-methyl-isobutyramide], the Ki at human NK1 receptor (setting [2]) was 3.31 nM; in assay [1] (setting [3]) it was 11.2 nM.

Regarding `CN(C(=O)C(C)(C)c1cc(C(F)(F)F)cc(C(F)(F)F)c1)c1cnc(N2C[C@@H](O)C[C@H]2CO)cc1-c1cccc(F)c1` [Example 251, (2S,4S)-2-(3,5-Bis-trifluoromethyl-phenyl)-N-[4-(3-fluoro-phenyl)-6-(4-hydroxy-2-hydroxymethyl-pyrrolidin-1-yl)-pyridin-3-yl]-N-methyl-isobutyramide], the figures for the Ki (on human NK1 receptor (setting [4]); in assay [1] (setting [5])) were 1.32 nM and 8.91 nM, respectively.

For the compound `CN(C(=O)C(C)(C)c1cc(C(F)(F)F)cc(C(F)(F)F)c1)c1cnc(NC[C@@H](O)CO)cc1-c1ccccc1Cl` [Example 126, (R)-2-(3,5-Bis-trifluoromethyl-phenyl)-N-[4-(2-chloro-phenyl)-6-(2,3-dihydroxy-propylamino)-pyridin-3-yl]-N-methyl-isobutyramide], the values for the Ki (on human NK1 receptor (setting [2]); in assay [1] (setting [3])) were 2.51 nM and 7.76 nM, respectively.

For the compound `CN(C(=O)C(C)(C)c1cc(C(F)(F)F)cc(C(F)(F)F)c1)c1cnc(NCCO)cc1-c1ccc(F)cc1Cl` [Example 69, 2-(3,5-Bis-trifluoromethyl-phenyl)-N-[4-(2-chloro-4-fluoro-phenyl)-6-(2-hydroxy-ethylamino)-pyridin-3-yl]-N-methyl-isobutyramide], the Ki on human NK1 receptor (setting [2]) is 1.12 nM; in assay [1] (setting [3]) it was 14.5 nM.

Take `CN(C(=O)C(C)(C)c1cc(C(F)(F)F)cc(C(F)(F)F)c1)c1cnc(N2C[C@H](O)C[C@H]2CO)cc1-c1ncccc1Cl` [Example 234, (2S,4R)-2-(3,5-Bis-trifluoromethyl-phenyl)-N-[3-chloro-6′-(4-hydroxy-2-hydroxymethyl-pyrrolidin-1-yl)-[2,4′]bipyridinyl-3′-yl]-N-methyl-isobutyramide]: the figures for the Ki (at human NK1 receptor (setting [4]); in assay [1] (setting [5])) were 2.19 nM and 11 nM, respectively.

As to `CN(C(=O)C(C)(C)c1cc(C(F)(F)F)cc(C(F)(F)F)c1)c1cnc(N(CCO)CCO)cc1-c1ccc(Cl)c(Cl)c1` [Example 87, N-[6-[Bis-(2-hydroxy-ethyl)-amino]-4-(3,4-dichloro-phenyl)-pyridin-3-yl]-2-(3,5-bis-trifluoromethyl-phenyl)-N-methyl-isobutyramide], the figures for the Ki (at human NK1 receptor (setting [2]); in assay [1] (setting [3])) were 1.58 nM and 9.55 nM, respectively.

With `CN(C(=O)C(C)(C)c1cc(C(F)(F)F)cc(C(F)(F)F)c1)c1cnc(N2CC[C@H](O)[C@H]2CO)cc1-c1cc(Cl)ccc1Cl` [Example 270, (2R,3S)-2-(3,5-Bis-trifluoromethyl-phenyl)-N-[4-(2,5-dichloro-phenyl)-6-(3-hydroxy-2-hydroxymethyl-pyrrolidin-1-yl)-pyridin-3-yl]-N-methyl-isobutyramide], the Ki on human NK1 receptor (setting [4]) is 2.63 nM; in assay [1] (setting [5]) it was 2.19 nM.

Take `CN(C(=O)C(C)(C)c1cc(C(F)(F)F)cc(C(F)(F)F)c1)c1cnc(N2C[C@@H](O)[C@@H](O)C2)cc1-c1ccccc1Cl` [Example 48, (3R,4S)-2-(3,5-Bis-trifluoromethyl-phenyl)-N-[4-(2-chloro-phenyl)-6-(3,4-dihydroxy-pyrrolidin-1-yl)-pyridin-3-yl]-N-methyl-isobutyramide]: the results for the Ki (on human NK1 receptor (setting [2]); in assay [1] (setting [3])) were 0.537 nM and 8.71 nM, respectively.

With `Cc1ccccc1-c1cc(N2C[C@H](O)C[C@H]2CO)ncc1N(C)C(=O)C(C)(C)c1cc(C(F)(F)F)cc(C(F)(F)F)c1` [Example 216, (2S,4R)-2-(3,5-Bis-trifluoromethyl-phenyl)-N-[6-(4-hydroxy-2-hydroxymethyl-pyrrolidin-1-yl)-4-o-tolyl-pyridin-3-yl]-N-methyl-isobutyramide], the figures for the Ki (on human NK1 receptor (setting [4]); in assay [1] (setting [5])) were 1.35 nM and 0.794 nM, respectively.

On to `Cc1cc(F)ccc1-c1cc(N2CCC[C@H]2CO)ncc1N(C)C(=O)C(C)(C)c1cccc(C(F)(F)F)c1` [Example 26, (S)-N-[4-(4-Fluoro-2-methyl-phenyl)-6-(2-hydroxymethyl-pyrrolidin-1-yl)-pyridin-3-yl]-N-methyl-2-(3-trifluoromethyl-phenyl)-isobutyramide], for which the Ki on human NK1 receptor (setting [2]) is 3.02 nM; in assay [1] (setting [3]), 5.75 nM.

Consider `Cc1ccncc1-c1cc(N(C)CCO)ncc1N(C)C(=O)C(C)(C)c1cc(C(F)(F)F)cc(C(F)(F)F)c1` [Example 294, 2-(3,5-Bis-trifluoromethyl-phenyl)-N-{6′-[(2-hydroxy-ethyl)-methyl-amino]-4-methyl-[3,4′]bipyridinyl-3′-yl}-N-methyl-isobutyramide], for which the Ki at human NK1 receptor (setting [4]) is 5.13 nM; in assay [1] (setting [5]), 4.27 nM.

With `CN(C(=O)C(C)(C)c1cc(C(F)(F)F)cc(C(F)(F)F)c1)c1cnc(N2CCC[C@@H](O)[C@H]2CO)cc1-c1ccccc1Cl` (racemic) [Example 195, (2RS,3RS)-2-(3,5-Bis-trifluoromethyl-phenyl)-N-[4′-(2-chloro-phenyl)-3-hydroxy-2-hydroxymethyl-3,4,5,6-tetrahydro-2H-[1,2′]bipyridinyl-5′-yl]-N-methyl-isobutyramide], the Ki on human NK1 receptor (setting [2]) was 1.82 nM; in assay [1] (setting [3]), 28.8 nM.

As to `Cc1ccccc1-c1cc(N2C[C@@H](O)C[C@@H]2CO)ncc1N(C)C(=O)C(C)(C)c1cc(F)cc(C(F)(F)F)c1` (stereo in doubt) [Example 14, (2R,4S)-2-(3-Fluoro-5-trifluoromethyl-phenyl)-N-[6-(4-hydroxy-2-hydroxymethyl-pyrrolidin-1-yl)-4-o-tolyl-pyridin-3-yl]-N-methyl-isobutyramide], the Ki at human NK1 receptor (setting [2]) was 1.29 nM; in assay [1] (setting [3]), 3.02 nM.

Regarding `CN(C(=O)C(C)(C)c1cc(C(F)(F)F)cc(C(F)(F)F)c1)c1cnc(N2CCN(C(=O)C3CC3)CC2)cc1-c1ccccc1Cl` [Example 62, 2-(3,5-Bis-trifluoromethyl-phenyl)-N-[4-(2-chloro-phenyl)-6-(4-cyclopropanecarbonyl-piperazin-1-yl)-pyridin-3-yl]-N-methyl-isobutyramide], the figures for the Ki (at human NK1 receptor (setting [2]); in assay [1] (setting [3])) were 1.02 nM and 6.61 nM, respectively.

As to `CN(C(=O)C(C)(C)c1cc(C(F)(F)F)cc(C(F)(F)F)c1)c1cnc(N2CC[C@H](O)[C@H]2CO)cc1-c1ccccc1F` [Example 264, (2R,3S)-2-(3,5-Bis-trifluoromethyl-phenyl)-N-[4-(2-fluoro-phenyl)-6-(3-hydroxy-2-hydroxymethyl-pyrrolidin-1-yl)-pyridin-3-yl]-N-methyl-isobutyramide], the values for the Ki (at human NK1 receptor (setting [4]); in assay [1] (setting [5])) were 1.48 nM and 2.14 nM, respectively.

With `C[C@@H](O)[C@@H](CO)Nc1cc(-c2ccccc2Cl)c(N(C)C(=O)C(C)(C)c2cc(C(F)(F)F)cc(C(F)(F)F)c2)cn1` [Example 144, (1R,2R)-2-(3,5-Bis-trifluoromethyl-phenyl)-N-[4-(2-chloro-phenyl)-6-(2-hydroxy-1-hydroxymethyl-propylamino)-pyridin-3-yl]-N-methyl-isobutyramide], the Ki at human NK1 receptor (setting [2]) is 3.63 nM; in assay [1] (setting [3]), 1.2 nM.

Consider `CN(C(=O)C(C)(C)c1cc(C(F)(F)F)cc(C(F)(F)F)c1)c1cnc(N2CC[C@@H](O)C2)cc1-c1ccccc1Cl` [Example 47, (R)-2-(3,5-Bis-trifluoromethyl-phenyl)-N-[4-(2-chloro-phenyl)-6-(3-hydroxy-pyrrolidin-1-yl)-pyridin-3-yl]-N-methyl-isobutyramide], for which the Ki on human NK1 receptor (setting [2]) is 1.95 nM; in assay [1] (setting [3]), 6.31 nM.
